A compilation of properties of binary mixtures (doi:10.1016/j.jct.2017.07.022)

Experiment: xn = mol fraction of the nth substance listed
Conditions: 100 kPa

CC[n+]1ccccc1.N#C[N-]C#N + CC(C)O
viscosity [mPa·s]
Conditions	x2 = 0	x2 = 0.1055	x2 = 0.1999	x2 = 0.2997	x2 = 0.4023	x2 = 0.499	x2 = 0.5998	x2 = 0.7006	x2 = 0.8007	x2 = 0.8997
288.15 K	25.9	21.3	18.3	–	12.3	10	8.04	6.15	4.78	3.75
293.15 K	22.1	–	15.6	12.9	10.7	8.68	7.02	5.39	4.18	3.28
298.15 K	18.9	15.6	13.4	11.2	–	7.61	6.19	4.77	3.7	2.89
303.15 K	16.4	13.5	11.6	9.83	8.17	6.72	–	4.24	3.29	2.55
308.15 K	14.3	11.7	10.1	8.69	7.24	6	4.91	–	2.95	–
313.15 K	–	10.3	8.9	7.72	6.47	5.38	–	–	–	2.03
318.15 K	11	9.08	7.9	6.92	5.82	4.85	–	–	2.41	1.83

CC[n+]1ccccc1.N#C[N-]C#N + CCCO
viscosity [mPa·s]
Conditions	x2 = 0	x2 = 0.1095	x2 = 0.1947	x2 = 0.3011	x2 = 0.4029	x2 = 0.5008	x2 = 0.6003	x2 = 0.702	x2 = 0.8012	x2 = 0.9
288.15 K	25.9	–	–	15.2	12	9.7	7.73	5.99	–	3.48
293.15 K	–	17.7	15.3	–	10.4	8.45	6.78	5.28	–	3.09
298.15 K	18.9	15.3	13.1	11.7	9.11	–	6	4.7	3.61	–
303.15 K	16.4	13.2	11.3	10.3	–	6.6	5.34	–	3.24	2.48
308.15 K	14.3	11.4	–	9.11	7.14	–	4.79	3.78	–	–
313.15 K	12.5	9.9	–	8.13	6.39	–	4.33	3.42	2.65	2.03
318.15 K	–	8.74	7.85	7.35	5.76	–	3.93	–	2.42	–

CC[n+]1ccccc1.N#C[N-]C#N + CCO
viscosity [mPa·s]
Conditions	x2 = 0	x2 = 0.1008	x2 = 0.1974	x2 = 0.3008	x2 = 0.3994	x2 = 0.5058	x2 = 0.5994	x2 = 0.6996	x2 = 0.7999	x2 = 0.9011
288.15 K	–	–	16.8	13.4	10.5	7.99	6.13	4.66	3.05	2.24
293.15 K	22.1	–	14.4	11.7	9.23	7.07	5.46	4.22	2.78	2.02
298.15 K	–	15.4	–	–	8.19	6.31	4.91	3.85	–	1.86
303.15 K	16.4	13.3	10.9	9.23	7.34	5.69	4.47	3.49	2.31	–
308.15 K	14.3	11.5	9.58	8.28	6.61	–	4.08	3.19	2.12	1.55
313.15 K	12.5	10.1	8.51	7.45	–	–	–	–	1.94	1.42
318.15 K	11	–	7.62	6.74	–	4.31	3.44	2.68	1.79	1.31

CC(C)O + CC[n+]1ccccc1.N#C[N-]C#N
x1 = 1
Conditions	viscosity [mPa·s]
288.15 K	2.83
293.15 K	2.42
298.15 K	2.08
303.15 K	1.8
308.15 K	1.56
313.15 K	1.33
318.15 K	1.17

CCCO + CC[n+]1ccccc1.N#C[N-]C#N
x1 = 1
Conditions	viscosity [mPa·s]
293.15 K	2.22
298.15 K	1.97
303.15 K	1.75
308.15 K	1.56
313.15 K	1.36
318.15 K	1.23

CCO + CC[n+]1ccccc1.N#C[N-]C#N
x1 = 1
Conditions	viscosity [mPa·s]
293.15 K	1.17
298.15 K	1.07
303.15 K	0.975
308.15 K	0.89
313.15 K	0.815
318.15 K	0.747
